Measured values from patent US9290484B2, “Furyl and thienyl triazole derivatives and therapeutic uses thereof” (University of Medicine and Dentistry of New Jersey, priority 2013, dated 2016).
≈ marks a conversion by molar mass, not a printed value.

How the values were obtained:
[1] = tested on: nitric oxide production induced by gamma interferon in PAM212 keratinocytes; settings: read-out: Nitric oxide inhibition IC50, 100 U/ml gamma interferon, nitrite at 72 hours
Description: The assay for measurement of anti-inflammatory activity is based on the ability of the cytokine gamma interferon to induce the formation of nitric oxide synthase and subsequently of nitric oxide itself in keratinocytes.
For each assay the cells were inoculated into a 24-well tissue culture plate at 250,000 cells per well in growth medium. After 24 hours the medium was changed to phenol red and serum-free DMEM containing 100 U/ml of gamma interferon. Nitric oxide production was thereby initiated and at 72 hours post inoculation was quantified spectrophotometrically by measuring the accumulation of nitrite in the culture medium using the Greiss reagent. This was done by drawing an aliquot of the culture medium and mixing it with equal volumes of 1.0% sulfanilamide and 0.1% N-1-naphthylethylene diamine in 50% phosphoric acid. […] Compounds according to the present invention were assayed for their anti-inflammatory activity by examining their ability to suppress nitric oxide production in this assay.

[2] = tested on: G. vaginalis; test: Antibacterial MIC, G. vaginalis; assay type: cell-based, Gardnerella vaginalis; settings: serial two-fold dilutions, IA = Inactive
Description: (§1) Compounds were tested using E. coli, G. vaginalis or S. aureus. Bacteria were grown on appropriate media containing a range of concentrations of the test compounds which were obtained by serial two-fold dilutions. Concentrations used were at least twice the MIC to at least ½ the break point for susceptibility to inhibition. MICs were determined spectrophotometrically by measuring changes in absorbance of bacterial cultures in the absence and presence of the test compounds.

[3] = tested on: E. coli; test: microbe, parasite or virus in culture; settings: for Antibacterial MIC E. Coli: serial two-fold dilutions, IA = Inactive
Description: as §1

Row | SMILES | IC50 [1] | MIC ([2]; Gardnerella vaginalis) | MIC ([3]; Escherichia coli, read-out: Antibacterial MIC E. Coli) | Antibacterial MIC G. Vaginalis [2] | Antibacterial MIC E. Coli [3]
1 | O=[N+]([O-])c1ccccc1C=CC=Nn1c(S)nnc1-c1cccs1 [Compound 3a, 4-[Imino-(3-(−2-nitrophenyl)-2-ethylenyl)]-3-mercapto-5-(2-thienyl)-4H-1,2,4-triazole] | 14 µM | – | – | – | –
2 | O=C1CN(/N=C/c2ccc([N+](=O)[O-])o2)C(=O)N1 [NF, Nitrofurantoin, reference compound] | – | 11.9 µg/mL (≈ 50 µM) | 1.2 µg/mL (≈ 5.04 µM) | – | –
3 | O=[N+]([O-])c1ccc(C=Nn2c(S)nnc2-c2cccs2)o1 [Compound 3d] | – | – | – | 3.2 µg/mL | 16.0 µg/mL
4 | O=[N+]([O-])c1ccc(C=CC=Nn2c(S)nnc2-c2ccco2)o1 [Compound 3c, 4-[imino-(3-(5-nitro-2-furyl)-2-ethylenyl)]-3-mercapto-5-(2-furoyl)-4H-1,2,4-triazole] | – | – | – | 16.6 µg/mL | 16.6 µg/mL
